Patent US20250230154A1, “COMPOUND HAVING SHP2 PROTEIN DEGRADING ACTIVITY, AND MEDICAL USES THEREOF” (UBIX THERAPEUTICS, INC., priority 2021, published 2025)

Target: T1, SHP2 protein (Homo sapiens, UniProt Q06124)
T1 sequence (Q06124 1-593): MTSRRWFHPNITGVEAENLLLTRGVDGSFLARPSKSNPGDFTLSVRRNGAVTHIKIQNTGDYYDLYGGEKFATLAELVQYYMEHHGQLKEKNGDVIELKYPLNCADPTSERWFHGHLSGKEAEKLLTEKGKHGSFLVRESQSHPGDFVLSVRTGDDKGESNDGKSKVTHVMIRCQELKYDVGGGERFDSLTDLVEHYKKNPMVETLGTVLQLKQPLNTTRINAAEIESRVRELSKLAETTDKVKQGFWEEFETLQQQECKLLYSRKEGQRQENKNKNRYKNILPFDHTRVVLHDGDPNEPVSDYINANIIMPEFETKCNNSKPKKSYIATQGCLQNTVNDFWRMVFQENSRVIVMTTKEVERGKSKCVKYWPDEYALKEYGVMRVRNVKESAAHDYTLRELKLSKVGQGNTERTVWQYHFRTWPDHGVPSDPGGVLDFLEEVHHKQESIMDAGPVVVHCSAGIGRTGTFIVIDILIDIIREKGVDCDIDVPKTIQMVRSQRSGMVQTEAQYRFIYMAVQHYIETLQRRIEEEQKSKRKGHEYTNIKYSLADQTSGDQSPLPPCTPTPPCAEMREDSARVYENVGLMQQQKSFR
Test: Measurement of SHP2 protein degradation in KYSE-520 cells (western blotting)
Assay type: cell-based
Parameters: endogenous in cells
Conditions: 24 hours

SMILES | SHP2 degradation (%) 10 nM [%] | SHP2 degradation (%) 100 nM [%] | SHP2 degradation (%) 1000 nM [%]
Cc1ncsc1-c1ccc(CNC(=O)[C@@H]2C[C@@H](O)CN2C(=O)[C@@H](NC(=O)C2(F)CC2)C(C)(C)C)c(OCCCC(=O)N2CCC(CCC(=O)Nc3cccc(Sc4cnc(N5CCC(C)(CN)CC5)cn4)c3Cl)CC2)c1 [Example 24, (2S,4R)—N-(2-(4-(4-(3-((3-((5-(4-(aminomethyl)-4-methylpiperidin-1-yl)pyrazin-2-yl)thio)-2-chlorophenyl)amino)-3-oxopropyl)piperidin-1-yl)-4-oxobutoxy)-4-(4-methylthiazol-5-yl)benzyl)-1-((S)-2-(1-fluorocyclopropane-1-carboxamido)-3,3-dimethylbutanoyl)-4-hydroxypyrrolidine-2-carboxamide] | 15.1 | 52.1 | 74.7
Cc1ncsc1-c1ccc(CNC(=O)[C@@H]2C[C@@H](O)CN2C(=O)[C@@H](NC(=O)C2(F)CC2)C(C)(C)C)c(OCCCCCCCCN2CCC(C(=O)Nc3cccc(Sc4cnc(N5CCC(C)(CN)CC5)cn4)c3Cl)CC2)c1 [Example 4, N-(3-((5-(4-(aminomethyl)-4-methylpiperidin-1-yl)pyrazin-2-yl)thio)-2-chlorophenyl)-1-(8-(2-(((2S,4R)-1-((S)-2-(1-fluorocyclopropane-1-carboxamido)-3,3-dimethylbutanoyl)-4-hydroxypyrrolidine-2-carboxamido)methyl)-5-(4-methylthiazol-5-yl)phenoxy)octyl)piperidine-4-carboxamide] | 4.1 | 60.7 | 90.7
